19 molecules from patent US7358214B2, “Pyrazolyl carboxanilides for controlling unwanted microorganisms” (Bayer CropScience AG, priority 2003, dated 2008) can be followed below.

Some results are limits rather than exact numbers.

One may read the chromatographic logP as a lipophilicity value derived from retention on a column.

Test system in one series: not listed separately
Briefly: logP determination by HPLC on reversed-phase column (C 18), pH 2.3. The note with it: reversed-phase HPLC column (C 18), HPLC reversed-phase C 18, 43° C. The format is physicochemical. How it is done:
The logP values given in the preparation examples and the tables above are determined in accordance with EEC Directive 79/831 Annex V.A8 by HPLC (High Performance Liquid Chromatography) on a reversed-phase column (C 18). Temperature: 43° C. The determination is carried out in the acidic range at pH 2.3 using the mobile phases 0.1% aqueous phosphoric acid and acetonitrile; linear gradient from 10% acetonitrile to 90% acetonitrile. Calibration is carried out using unbranched alkan-2-ones (having 3 to 16 carbon atoms) with known logP values (determination of the logP values by retention times using linear interpolation between two successive alkanones).
`CC(CC(C)(C)C)c1ccccc1NC(=O)c1c(C(F)(F)F)nn(C)c1F` (stereo not shown) [Example 1, [5-fluoro-1-methyl-3-(trifluoromethyl)pyrazol-4-yl]-N-[2-(1,3,3-trimethylbutyl)phenyl]carbox-amide] came in with a chromatographic logP of 4.14.
Same read-out and setting: the figure for `CC(C)CC(C)c1ccccc1NC(=O)c1c(C(F)(F)F)nn(C)c1F` (stereo not shown) [Example 2] is 3.88; for `CCC(C)(C)CC(C)c1ccccc1NC(=O)c1c(C(F)(F)F)nn(C)c1F` (stereo not shown) [Example 3] it is 4.45.
The molecule `CCC(CC(C)C)c1ccccc1NC(=O)c1c(C(F)(F)F)nn(C)c1F` (stereo not shown) [Example 4] returned a chromatographic logP of 4.27.
The molecule `CC(C)CC(C)c1cc(F)ccc1NC(=O)c1c(C(F)(F)F)nn(C)c1F` (stereo not shown) [Example 5] had a chromatographic logP of 3.92.

A further series deals with Puccinia recondita. The experiment in a line: Puccinia test (wheat)/protective. The format is in vivo. The note with it: application rate 500 g/ha; protective; evaluation 10 days after inoculation. How it is done:
• Solvent: 25 parts by weight of N,N-dimethylacetamide • Emulsifier: 0.6 part by weight of alkylaryl polyglycol ether To produce a suitable preparation of active compound, 1 part by weight of active compound is mixed with the stated amounts of solvent and emulsifier, and the concentrate is diluted with water to the desired concentration. To test for protective activity, young plants are sprayed with the preparation of active compound at the stated application rate. After the spray coating has dried on, the plants are sprayed with a conidia suspension of Puccinia recondita. The plants remain in an incubation cabin at 20° C. and 100% relative atmospheric humidity for 48 hours. The plants are then placed in a greenhouse at a temperature of about 20° C. and a relative atmospheric humidity of 80% to promote the development of rust pustules. Evaluation is carried out 10 days after the inoculation. 0% means an efficacy which corresponds to that of the control, whereas an efficacy of 100% means that no infection is observed.
In turn, `CC(CC(C)(C)C)c1ccccc1NC(=O)c1c(C(F)(F)F)nn(C)c1F` (stereo not shown) [drawing 30] came in with an Efficacy in % of 100%.
`CC(C)CC(C)c1ccccc1NC(=O)c1c(C(F)(F)F)nn(C)c1F` (stereo not shown) [drawing 31]: the Efficacy in % is 100%.

Another series concerns Venturia inaequalis. Briefly: Venturia test (apple)/protective. The class given is in vivo. The note with it: application rate 100 g/ha; protective; evaluation 10 days after inoculation. How it is done: (§1) [table] To produce a suitable preparation of active compound, 1 part by weight of active compound is mixed with the stated amounts of solvents and emulsifier, and the concentrate is diluted with water to the desired concentration. To test for protective activity, young plants are sprayed with the preparation of active compound at the stated application rate. After the spray coating has dried on, the plants are inoculated with an aqueous conidia suspension of the apple scab pathogen Venturia inaequalis and then remain in an incubation cabin at about 20° C. and 100% relative atmospheric humidity for 1 day. The plants are then placed in a greenhouse at about 21° C. and a relative atmospheric humidity of about 90%. Evaluation is carried out 10 days after the inoculation. 0% means an efficacy which corresponds to that of the control, whereas an efficacy of 100% means that no infection is observed.
As for `CC(CC(C)(C)C)c1ccccc1NC(=O)c1c(C(F)(F)F)nn(C)c1F` (stereo not shown) [drawing 35], the Efficacy in % is on record as 100%.
For `CC(C)CC(C)c1ccccc1NC(=O)c1c(C(F)(F)F)nn(C)c1F` (stereo not shown) [drawing 36], the Efficacy in % was determined as 100%.
`CCC(C)(C)CC(C)c1ccccc1NC(=O)c1c(C(F)(F)F)nn(C)c1F` (stereo not shown) [drawing 37] yielded an Efficacy in % of 99%.

The next series concerns Sphaerotheca fuliginea. Briefly: Spaerotheca test (cucumber)/protective. The format is in vivo. The conditions noted are these: application rate 100 g/ha; protective; evaluation 7 days after inoculation. As for the experimental part:
as §1, with “aqueous spore” for “aqueous conidia”, “of Sphaerotheca fuliginea.” for “of the apple scab pathogen Venturia inaequalis and then remain in an incubation cabin at about 20° C. and 100% relative atmospheric humidity for 1 day.”, “about 23°” for “about 21°”, “about 70%.” for “about 90%.”, “out 7” for “out 10”
Take `CC(CC(C)(C)C)c1ccccc1NC(=O)c1c(C(F)(F)F)nn(C)c1F` (stereo not shown) [drawing 32]: the Efficacy in % came to 100%.
Turning to `CC(C)CC(C)c1ccccc1NC(=O)c1c(C(F)(F)F)nn(C)c1F` (stereo not shown) [drawing 33], the Efficacy in % amounted to 100%.
With `CCC(C)(C)CC(C)c1ccccc1NC(=O)c1c(C(F)(F)F)nn(C)c1F` (stereo not shown) [drawing 34], the Efficacy in % came out at 98%.

Another series deals with Alternaria mali. Briefly: In vitro test for the ED50 determination in microorganisms. The format is cell-based. The note with it: 50% inhibition of fungal growth, 22° C., 3-5 days, photometric at 620 nm. As for the experimental part: A methanolic solution of the active compound to be tested, mixed with emulsifier PS16, is pipetted into the wells of a microtiter plate. After the solvent has evaporated, 200 μl of potato dextrose medium are added to each well. Beforehand, a suitable concentration of spores or mycelium of the fungus to be tested was added to the medium. The resulting concentrations of active compound are 0.1, 1, 10 and 100 ppm. The resulting concentration of the emulsifier is 300 ppm. The plates are then incubated on a shaker at a temperature of 22° C. for 3-5 days, until sufficient growth can be observed in the untreated control. Evaluation is carried out photometrically at a wavelength of 620 nm. The dose of active compound which causes 50% inhibition of fungal growth compared to the untreated control (ED50) is calculated from data measured at different concentrations.
With `CC(CC(C)(C)C)c1ccccc1NC(=O)c1c(C(F)(F)F)nn(C)c1F` (stereo not shown) [drawing 41], the “ED50 value in ppm” value is listed as <0.1 ppm.
Same read-out and setting: with `CC(C)CC(C)c1ccccc1NC(=O)c1c(C(F)(F)F)nn(C)c1F` (stereo not shown) [drawing 42] the figure was 0.28 ppm; with `CCC(C)(C)CC(C)c1ccccc1NC(=O)c1c(C(F)(F)F)nn(C)c1F` (stereo not shown) [drawing 43], <0.1 ppm.

A further series has as its system Botrytis cinerea. Briefly: Botrytis test (bean)/protective. The class given is in vivo. The conditions noted are these: application rate 500 g/ha; protective; evaluation two days after inoculation. How it is done: [table] To produce a suitable preparation of active compound, 1 part by weight of active compound is mixed with the stated amounts of solvents and emulsifier, and the concentrate is diluted with water to the desired concentration. To test for protective activity, young plants are sprayed with the preparation of active compound at the stated application rate. After the spray coating has dried on, 2 small pieces of agar colonized by Botrytis cinerea are placed onto each leaf. The inoculated plants are placed in a dark chamber at about 20° C. and 100% relative atmospheric humidity. Two days after the inoculation, the size of the infected areas on the leaves is evaluated. 0% means an efficacy which corresponds to that of the control, whereas an efficacy of 100% means that no infection is observed.
Molecule `CC(CC(C)(C)C)c1ccccc1NC(=O)c1c(C(F)(F)F)nn(C)c1F` (stereo not shown) [drawing 38] yielded an Efficacy in % of 100%.
In turn, `CC(C)CC(C)c1ccccc1NC(=O)c1c(C(F)(F)F)nn(C)c1F` (stereo not shown) [drawing 39] returned an Efficacy in % of 100%.
`CCC(C)(C)CC(C)c1ccccc1NC(=O)c1c(C(F)(F)F)nn(C)c1F` (stereo not shown) [drawing 40] had an Efficacy in % of 95%.
